2 molecules from patent US20200239530A1, “COMPOUNDS AND METHODS OF MODULATING PROTEIN DEGRADATION” (Vividion Therapeutics, Inc., priority 2017, published 2020) can be followed below.

In the assay the target is T1, KIAA0664 Clustered mitochondria protein homolog (Homo sapiens, UniProt O75153).
T1 construct: Cells were resuspended in cold PBS on ice and sonicated with a probe sonicator to achieve lysis; endogenous in cells
T1 sequence (O75153 1-1309): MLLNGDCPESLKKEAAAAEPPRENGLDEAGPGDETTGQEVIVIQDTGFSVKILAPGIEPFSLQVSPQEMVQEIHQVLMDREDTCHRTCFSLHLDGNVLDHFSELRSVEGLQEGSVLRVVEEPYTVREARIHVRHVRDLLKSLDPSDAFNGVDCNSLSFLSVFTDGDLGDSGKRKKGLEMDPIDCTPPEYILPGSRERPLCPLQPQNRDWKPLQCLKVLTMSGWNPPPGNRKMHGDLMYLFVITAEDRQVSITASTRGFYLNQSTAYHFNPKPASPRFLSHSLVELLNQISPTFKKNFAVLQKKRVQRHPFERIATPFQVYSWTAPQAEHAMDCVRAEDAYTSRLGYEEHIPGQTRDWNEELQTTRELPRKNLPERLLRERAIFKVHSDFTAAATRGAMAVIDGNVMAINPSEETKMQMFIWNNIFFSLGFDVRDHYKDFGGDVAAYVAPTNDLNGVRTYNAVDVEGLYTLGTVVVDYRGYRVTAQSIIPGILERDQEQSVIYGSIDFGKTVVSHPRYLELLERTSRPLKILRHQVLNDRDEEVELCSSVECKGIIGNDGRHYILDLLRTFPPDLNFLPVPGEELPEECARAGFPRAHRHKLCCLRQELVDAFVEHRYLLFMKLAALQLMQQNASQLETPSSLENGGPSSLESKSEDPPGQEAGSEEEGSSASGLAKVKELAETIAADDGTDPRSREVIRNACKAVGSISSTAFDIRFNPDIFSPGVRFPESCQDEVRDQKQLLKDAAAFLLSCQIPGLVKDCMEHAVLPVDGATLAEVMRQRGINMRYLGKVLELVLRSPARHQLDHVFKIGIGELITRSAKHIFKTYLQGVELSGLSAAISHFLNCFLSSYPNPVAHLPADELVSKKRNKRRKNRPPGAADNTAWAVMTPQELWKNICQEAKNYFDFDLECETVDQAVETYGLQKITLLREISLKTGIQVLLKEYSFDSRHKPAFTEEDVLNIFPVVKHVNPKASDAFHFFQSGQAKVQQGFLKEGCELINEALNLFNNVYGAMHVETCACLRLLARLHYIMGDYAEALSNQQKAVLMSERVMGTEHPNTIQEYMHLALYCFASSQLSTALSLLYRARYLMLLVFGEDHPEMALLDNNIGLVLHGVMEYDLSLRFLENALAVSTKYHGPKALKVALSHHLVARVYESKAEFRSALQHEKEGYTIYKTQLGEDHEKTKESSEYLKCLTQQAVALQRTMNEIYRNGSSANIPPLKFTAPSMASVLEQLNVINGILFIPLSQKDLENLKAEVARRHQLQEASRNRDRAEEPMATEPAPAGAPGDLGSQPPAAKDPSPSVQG
The assay can be described thus: Cysteine liganding, probe competition. The class given is binding. The method, boiled down:
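Steps: sonicate cells in cold PBS; treat 5 mg/ml lysate with compound (25° C, 1 hr); add desthiobiotin iodoacetamide probe from a 10 mM stock (25° C, 1 hr); precipitate, reduce, alkylate, digest with trypsin; capture labelled peptides on streptavidin for analysis.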

In the case of `O=C(CCl)Nc1cc(C(F)(F)F)cc(C(F)(F)F)c1` [KBO3], for the setting “uniprot O75153”, the “100 Max” value is on record as 23.11, the 100 ave was 9.323 and the 500 ave was 51.405. Moreover, the “500 Max” value (uniprot O75153, in % (unit assumed)) is listed as 73.65.
`COc1ccc2c(c1)CCCN2C(=O)CCl` [KB02]: the Liganded entry (KIAA0664 Res# 333, uniprot O75153) is listed as “YES”.
